Data set [1] is described as follows: Tissue accumulation (plasma, tumor, small intestine) in B16-F10 tumor-bearing mice, HPLC. The data set is classed as in vivo. As for the experimental part:
Female C57BL/6J mice were subcutaneously injected with 2 × 10^6 B16-F10 cells. The cells were prepared in a mixture containing a 1:1 volume ratio of phosphate-buffered saline (PBS) and Matrigel (Corning, New York, USA), with the total injection volume being 200 μL, administered into the dorsal flank. Tumor growth was measured bi-daily using calipers until tumors reached a size of approximately 300 ~ 500 mm^3, at which point they were deemed palpable. […] Blood samples were collected at 30 and 60 min post-administration. Then both the tumors and small intestines were excised and weighed for subsequent analysis by HPLC.
(§1) HPLC analyses were conducted as previously described. In brief, tumors and small intestines were homogenized in ice-cold PBS (3 times the tissue weight, v/w). The homogenates were then centrifuged at 15,000 ×g for 40 min at 4 °C. A 10 μL aliquot of the tissue supernatant or plasma was mixed with 190 μL of acetonitrile (MeCN) to precipitate proteins. This mixture was subsequently centrifuged at 15,000 ×g for 30 min at 4 °C. The resulting supernatant (100 μL) was dried, and the residue was reconstituted in 20 μL of 400 mM sodium borate (pH 8.0). Finally, 5 μL of 40 mM 4-fluoro-7-nitro-2,1,3-benzoxadiazole (NBD-F) in MeCN was added for fluorescence derivatization. HPLC analysis was carried out using a NANOSPACE SI-2 HPLC system (Shiseido, Tokyo, Japan) equipped with a fluorescence detector. […] The mobile phase consisted of MeCN, water, and trifluoroacetic acid (TFA) in a 27.5:72.5:0.05 (v/v/v) ratio, delivered at a flow rate of 200 μL/min.

The nature of data set [2]: Plasma concentration-time profile in normal mice after intravenous administration. The data set is classed as in vivo. To be noted: C57BL/6J mice, i.v., 15, 30, 60, 120 min; 2-F-Tyr 15.6 mg/kg, bicyclic-Phe 15 mg/kg. As for the experimental part:
The blood samples were collected at 15, 30, 60, and 120 min post-administration into lithium heparin-coated tubes (BD, New Jersey, USA) and then centrifuged at 1,500 ×g for 10 min at 23 °C. The resulting plasma was stored at −80 °C pending analysis by HPLC.
as §1

On to `N[C@]1(C(=O)O)CCc2ccccc2C1` [bicyclic-Phe, (R)-2-amino-1,2,3,4-tetrahydro-2-naphthoic acid], for which the “Small intestine-to-plasma ratio (I/P) (in words)” value in data set [1] (30 and 60 min after i.v., equimolar doses) is “significantly lower than that for 2-F-Tyr”. The “Concentration in small intestine compared with plasma” value in data set [1] (i.v., normalized to tissue weight / plasma volume) is given as “lower than in plasma”. For the same compound, in data set [1] (i.v., normalized to tissue weight / plasma volume, 2-F-Tyr at 60 min), the “Concentration in tumor compared with plasma” value is “higher than in plasma”. Further, the “Plasma concentration (in words)” value in data set [2] was “consistently showing higher levels than 2-F-Tyr”.

Values taken from paper PMC10897196, “Structure–activity characteristics of phenylalanine analogs selectively transported by L-type amino acid transporter 1 (LAT1)” (Scientific Reports, 2024).
